Measured values from patent US9505745B2, “Enhancer of zeste homolog 2 inhibitors” (GlaxoSmithKline Intellectual Property (No.2) Limited, priority 2013, dated 2016).

Experiments:
[1] = biological target: T1, EZH2 within the PRC2 complex (Homo sapiens (Human), UniProt Q15910); assay: EZH2 methyltransferase SPA, mononucleosome substrate (Assay Protocol 1); type: biochemical; settings: HeLa mononucleosome substrate, 3H-SAM, ≦10 nM approaches limit of detection
Protocol: Compounds contained herein were evaluated for their ability to inhibit the methyltransferase activity of EZH2 within the PRC2 complex. Human PRC2 complex was prepared by co-expressing each of the 5 member proteins (FLAG-EZH2, EED, SUZ12, RbAp48, AEBP2) in Sf9 cells followed by co-purification. Enzyme activity was measured in a scintillation proximity assay (SPA) where a tritiated methyl group is transferred from 3H-SAM to a lysine residue on Histone H3 of a mononucleosome, purified from HeLa cells. Mononucleosomes were captured on SPA beads and the resulting signal is read on a ViewLux plate reader.
(§1) Part A. Compound Preparation
• 1. Prepare 10 mM stock of compounds from solid in 100% DMSO. • 2. Set up an 11-point serial dilution (1:3 dilution, top concentration 10 mM) in 100% DMSO for each test compound in a 384 well plate leaving columns 6 and 18 for DMSO controls. • 3. Dispense 100 nL of compound from the dilution plate into reaction plates (Grenier Bio-One, 384-well, Cat#784075). Part B. Reagent Preparation Prepare the following solutions: • 1. 50 mM Tris-HCl, pH 8: Per 1 L of base buffer, combine 1 M Tris-HCl, pH 8 (50 mL) and distilled water (950 mL). • 2. 1× Assay Buffer: Per 10 mL of 1× Assay Buffer, combine 50 mM Tris-HCl, pH 8 (9958 uL), 1 M MgCl2 (20 uL), 2 M DTT (20 uL), and 10% Tween-20 (2 uL) to provide a final concentration of 50 mM Tris-HCl, pH 8, 2 mM MgCl2, 4 mM DTT, 0.002% Tween-20. • 3. 2× Enzyme Solution: Per 10 mL of 2× Enzyme Solution, combine 1× Assay Buffer and PRC2 complex to provide a final enzyme concentration of 10 nM. • 4. SPA Bead Suspension: Per 1 mL of SPA Bead Suspension, combine PS-PEI coated LEADSeeker beads (40 mg) and H2O (1 mL) to provide a final concentration of 40 mg/mL. • 5. 2× Substrate Solution: Per 10 mL of 2× Substrate Solution, combine 1× Assay Buffer (9728.55 uL), 800 ug/mL mononucleosomes (125 uL), 1 mM cold SAM (4 uL), and 7.02 uM 3H-SAM (142.45 uL; 0.55 mCi/mL) to provide a final concentration of 5 ug/mL nucleosomes, 0.2 uM cold SAM, and 0.05 uM 3H-SAM. • 6. 2.67× Quench/Bead Mixture: Per 10 mL of 2.67× Quench/Bead Mixture, combine ddH2O (9358 uL), 10 mM cold SAM (267 uL), 40 mg/mL Bead Suspension (375 uL) to provide a final concentration of 100 uM cold SAM and 0.5 mg/mL SPA beads. Part C. Assay Reaction in 384-well Grenier Bio-One Plates Compound Addition • 1. Dispense 100 nL/well of 100× Compound to test wells (as noted above). • 2. Dispense 100 nL/well of 100% DMSO to columns 6 & 18 for high and low controls, respectively. Assay • 1. Dispense 5 uL/well of 1× Assay Buffer to column 18 (low control reactions). • 2. Dispense 5 uL/well of 2× Enzyme Solution to columns 1-17, 19-24. • 3. Spin assay plates for ˜1 min at 500 rpm. • 4. Stack the assay plates, covering the top plate. • 5. Incubate the compound/DMSO with the enzyme for 30 min at room temperature. • 6. Dispense 5 uL/well of 2× Substrate Solution to columns 1-24. • 7. Spin assay plates for ˜1 min at 500 rpm. • 8. Stack the assay plates, covering the top plate. • 9. Incubate the assay plates at room temperature for 1 hour. Quench/Bead Addition • 1. Dispense 5 uL/well of the 3× Quench/Bead Mixture to columns 1-24. • 2. Seal the top of each assay plate with adhesive TopSeal. • 3. Spin assay plates for ˜1 min at 500 rpm. • 4. Equilibrate the plates for >20 min. Read plates • 1. Read the assay plates on the Viewlux Plate Reader utilizing the 613 nm emission filter with a 300 s read time.
Reagent addition can be done manually or with automated liquid handler. • The final DMSO concentration in this assay is 1%. • The positive control is in column 6; negative control is in column 18. • Final starting concentration of compounds is 100 µM. Results
(§2) Percent inhibition was calculated relative to the DMSO control for each compound concentration and the resulting values were fit using standard IC50 fitting parameters within the ABASE data fitting software package.

[2] = biological target: T1, EZH2 within the PRC2 complex; assay: EZH2 methyltransferase SPA, biotinylated histone H3K27 peptide substrate (Assay Protocol 2); type: biochemical; settings: 3H-SAM, ≦10 nM approaches limit of detection
Protocol: Compounds contained herein were evaluated for their ability to inhibit the methyltransferase activity of EZH2 within the PRC2 complex. Human PRC2 complex was prepared by co-expressing each of the 5 member proteins (FLAG-EZH2, EED, SUZ12, RbAp48, AEBP2) in Sf9 cells followed by co-purification. Enzyme activity was measured in a scintillation proximity assay (SPA) where a tritiated methyl group is transferred from 3H-SAM to a lysine residue on a biotinylated, unmethylated peptide substrate derived from histone H3. The peptides were captured on streptavidin-coated SPA beads and the resulting signal was read on a ViewLux plate reader.
as §1
• 4. Prepare 10 mM stock of compounds from solid in 100% DMSO. • 5. Set up an 11-point serial dilution (1:4 dilution, top concentration 10 mM) in 100% DMSO for each test compound in a 384 well plate leaving columns 6 and 18 for DMSO controls. • 6. Dispense 10 nL of compound from the dilution plate into reaction plates (Corning, 384-well polystyrene NBS, Cat#3673). Part B. Reagent Preparation Prepare the following solutions: • 7. 1× Base Buffer, 50 mM Tris-HCl, pH 8, 2 mM MgCl2: Per 1 L of base buffer, combine 1 M Tris-HCl, pH 8 (50 mL), 1 M MgCl2 (2 mL), and distilled water (948 mL). • 8. 1× Assay Buffer: Per 10 mL of 1× Assay Buffer, combine 1× Base Buffer (9.96 mL), 1 M DTT (40 uL), and 10% Tween-20 (1 uL) to provide a final concentration of 50 mM Tris-HCl, pH 8, 2 mM MgCl2, 4 mM DTT, 0.001% Tween-20. • 9. 2× Enzyme Solution: Per 10 mL of 2× Enzyme Solution, combine 1× Assay Buffer (9.99 mL) and 3.24 uM EZH2 5 member complex (6.17 uL) to provide a final enzyme concentration of 1 nM. • 10. SPA Bead Solution: Per 1 mL of SPA Bead Solution, combine Streptavidin coated SPA beads (PerkinElmer, Cat#RPNQ0261, 40 mg) and 1× Assay Buffer (1 mL) to provide a working concentration of 40 mg/mL. • 11. 2× Substrate Solution: Per 10 mL of 2× Substrate Solution, combine 40 mg/mL SPA Bead Solution (375 uL), 1 mM biotinylated histone H3K27 peptide (200 uL), 12.5 uM 3H-SAM (240 uL; 1 mCi/mL), 1 mM cold SAM (57 uL), and 1× Assay Buffer (9.13 mL) to provide a final concentration of 0.75 mg/mL SPA Bead Solution, 10 uM biotinylated histone H3K27 peptide, 0.15 uM 3H-SAM (˜12 uCi/mL 3H-SAM), and 2.85 uM cold SAM. • 12. 2.67× Quench Solution: Per 10 mL of 2.67× Quench Solution, combine 1× Assay Buffer (9.73 mL) and 10 mM cold SAM (267 uL) to provide a final concentration of 100 uM cold SAM. Part C. Assay Reaction in 384-well Grenier Bio-One Plates Compound Addition • 3. Stamp 10 nL/well of 1000× Compound to test wells (as noted above). • 4. Stamp 10 nL/well of 100% DMSO to columns 6 & 18 (high and low controls, respectively). Assay • 10. Dispense 5 uL/well of 1× Assay Buffer to column 18 (low control reactions). • 11. Dispense 5 uL/well of 2× Substrate Solution to columns 1-24 (note: substrate solution should be mixed to ensure homogeneous bead suspension before dispensing into matrix reservoir). • 12. Dispense 5 uL/well of 2× Enzyme Solution to columns 1-17, 19-24. • 13. Incubate the reaction for 60 min at room temperature. Quench • 5. Dispense 6 uL/well of the 2.67× Quench Solution to columns 1-24. • 6. Seal assay plates and spin for ˜1 min at 500 rpm. • 7. Dark adapt plates in the ViewLux instrument for 15-60 min. Read plates • 2. Read the assay plates on the Viewlux Plate Reader utilizing the 613 nm emission filter or clear filter (300 s exposure). Reagent addition can be done manually or with automated liquid handler. Results
as §2

T1 sequence (Q15910 whole entry): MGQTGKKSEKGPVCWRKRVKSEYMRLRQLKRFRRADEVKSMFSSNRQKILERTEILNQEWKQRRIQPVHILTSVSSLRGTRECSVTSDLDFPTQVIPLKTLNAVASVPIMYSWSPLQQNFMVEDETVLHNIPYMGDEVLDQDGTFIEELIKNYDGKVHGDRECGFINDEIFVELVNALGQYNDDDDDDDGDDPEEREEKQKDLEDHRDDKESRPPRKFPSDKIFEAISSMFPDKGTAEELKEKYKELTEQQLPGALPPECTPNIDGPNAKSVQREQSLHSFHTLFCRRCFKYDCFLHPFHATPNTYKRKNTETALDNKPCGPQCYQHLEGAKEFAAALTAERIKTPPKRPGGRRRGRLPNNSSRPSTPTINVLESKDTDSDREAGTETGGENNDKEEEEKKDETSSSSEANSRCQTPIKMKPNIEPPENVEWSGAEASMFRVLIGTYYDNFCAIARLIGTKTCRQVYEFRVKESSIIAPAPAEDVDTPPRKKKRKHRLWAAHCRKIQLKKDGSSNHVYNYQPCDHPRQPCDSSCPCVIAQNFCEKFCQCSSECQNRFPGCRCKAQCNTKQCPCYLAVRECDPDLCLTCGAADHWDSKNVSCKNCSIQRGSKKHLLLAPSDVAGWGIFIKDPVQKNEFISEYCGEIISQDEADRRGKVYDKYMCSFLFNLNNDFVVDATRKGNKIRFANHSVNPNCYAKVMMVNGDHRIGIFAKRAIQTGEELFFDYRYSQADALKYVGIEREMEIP
T1 sequence (O75530 whole entry partner): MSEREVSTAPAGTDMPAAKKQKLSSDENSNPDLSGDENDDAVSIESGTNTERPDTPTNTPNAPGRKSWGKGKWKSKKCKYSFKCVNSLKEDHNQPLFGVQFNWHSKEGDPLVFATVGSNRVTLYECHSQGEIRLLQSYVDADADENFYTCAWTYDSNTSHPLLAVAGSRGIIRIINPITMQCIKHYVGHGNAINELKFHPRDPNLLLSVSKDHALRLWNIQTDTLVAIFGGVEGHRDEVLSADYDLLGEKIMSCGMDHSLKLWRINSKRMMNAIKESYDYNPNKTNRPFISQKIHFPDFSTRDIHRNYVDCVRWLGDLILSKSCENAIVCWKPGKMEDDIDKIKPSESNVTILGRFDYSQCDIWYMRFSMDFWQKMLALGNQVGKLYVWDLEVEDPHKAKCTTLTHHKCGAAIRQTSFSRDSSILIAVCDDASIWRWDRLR
T1 sequence (Q15022 whole entry partner): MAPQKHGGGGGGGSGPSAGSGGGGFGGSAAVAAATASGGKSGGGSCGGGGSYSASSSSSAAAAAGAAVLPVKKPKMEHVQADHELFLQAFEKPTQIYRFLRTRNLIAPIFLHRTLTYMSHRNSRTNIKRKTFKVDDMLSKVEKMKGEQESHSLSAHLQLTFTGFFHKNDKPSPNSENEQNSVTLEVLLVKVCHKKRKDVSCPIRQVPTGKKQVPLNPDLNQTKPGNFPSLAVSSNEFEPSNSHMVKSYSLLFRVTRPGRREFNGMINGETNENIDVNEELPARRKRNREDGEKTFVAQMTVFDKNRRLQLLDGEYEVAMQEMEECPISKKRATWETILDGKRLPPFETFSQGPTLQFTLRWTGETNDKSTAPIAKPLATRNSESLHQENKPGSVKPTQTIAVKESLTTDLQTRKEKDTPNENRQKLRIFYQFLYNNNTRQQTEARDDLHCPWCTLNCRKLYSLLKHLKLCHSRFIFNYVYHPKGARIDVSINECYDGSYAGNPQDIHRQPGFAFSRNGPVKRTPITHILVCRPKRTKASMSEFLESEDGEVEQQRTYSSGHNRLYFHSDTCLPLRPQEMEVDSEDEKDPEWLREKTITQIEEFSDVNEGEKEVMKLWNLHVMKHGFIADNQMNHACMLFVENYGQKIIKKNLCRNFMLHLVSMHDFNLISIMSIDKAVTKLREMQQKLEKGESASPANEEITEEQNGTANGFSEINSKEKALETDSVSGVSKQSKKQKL
T1 sequence (Q09028 whole entry partner): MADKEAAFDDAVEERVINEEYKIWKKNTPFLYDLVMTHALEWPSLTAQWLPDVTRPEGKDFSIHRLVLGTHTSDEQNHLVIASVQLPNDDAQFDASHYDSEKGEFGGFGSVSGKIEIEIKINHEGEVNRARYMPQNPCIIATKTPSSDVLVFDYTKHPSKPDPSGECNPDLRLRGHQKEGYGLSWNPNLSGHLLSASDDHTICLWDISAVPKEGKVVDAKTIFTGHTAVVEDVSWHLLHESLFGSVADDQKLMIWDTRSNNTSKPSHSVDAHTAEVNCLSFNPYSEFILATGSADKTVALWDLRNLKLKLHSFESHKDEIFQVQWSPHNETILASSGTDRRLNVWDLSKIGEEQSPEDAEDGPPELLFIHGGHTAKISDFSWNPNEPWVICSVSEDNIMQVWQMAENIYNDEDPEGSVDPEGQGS
T1 sequence (Q6ZN18 whole entry partner): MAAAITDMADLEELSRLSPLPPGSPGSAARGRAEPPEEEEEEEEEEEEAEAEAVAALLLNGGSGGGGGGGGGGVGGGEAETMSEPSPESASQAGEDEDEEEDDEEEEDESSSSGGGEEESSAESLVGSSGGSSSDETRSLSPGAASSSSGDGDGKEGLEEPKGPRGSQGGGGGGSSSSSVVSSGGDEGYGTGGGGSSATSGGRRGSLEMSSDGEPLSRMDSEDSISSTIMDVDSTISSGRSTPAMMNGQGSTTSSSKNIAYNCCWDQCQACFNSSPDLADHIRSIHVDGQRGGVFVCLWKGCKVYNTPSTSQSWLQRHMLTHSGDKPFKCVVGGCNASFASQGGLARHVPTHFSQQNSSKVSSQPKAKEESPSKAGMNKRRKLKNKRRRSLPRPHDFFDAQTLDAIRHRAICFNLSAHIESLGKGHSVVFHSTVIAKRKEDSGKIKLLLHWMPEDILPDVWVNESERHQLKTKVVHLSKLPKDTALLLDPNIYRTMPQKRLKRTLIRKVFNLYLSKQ

Compound	IC50 [1]	IC50 [2]
CCN(c1sc(Br)c(C(=O)NCc2c(C)cc(C)[nH]c2=O)c1C)C1CCOCC1 [Example 19, 2-Bromo-N-((4,6-dimethyl-2-oxo-1,2-dihydropyridin-3-yl)methyl)-5-(ethyl(tetrahydro-2H-pyran-4-yl)amino)-4-methylthiophene-3-carboxamide]	≤ 10 nM	20 nM
Cc1cc(C)c(CNC(=O)c2csc(C(O)C3CCN(C(=O)OC(C)(C)C)CC3)c2C)c(=O)[nH]1 (centres unmarked) [Example 20, tert-Butyl 4-((4-(((4,6-dimethyl-2-oxo-1,2-dihydropyridin-3-yl)methyl)carbamoyl)-3-methylthiophen-2-yl)(hydroxy)methyl)piperidine-1-carboxylate]	158 nM	1590 nM
Cc1cc(C)c(CNC(=O)c2cnn(-c3ccccc3)c2C)c(=O)[nH]1 [Example 9, N-((4,6-dimethyl-2-oxo-1,2-dihydropyridin-3-yl)methyl)-5-methyl-1-phenyl-1H-pyrazole-4-carboxamide]	20000 nM	63100 nM
CCN(c1sc(-c2ccoc2)c(C(=O)NCc2c(C)cc(C)[nH]c2=O)c1C)C1CCOCC1 [Example 75, N-((4,6-dimethyl-2-oxo-1,2-dihydropyridin-3-yl)methyl)-5-(ethyl(tetrahydro-2H-pyran-4-yl)amino)-2-(furan-3-yl)-4-methylthiophene-3-carboxamide]	–	25 nM
CCN(c1scc(C(=O)NCc2c(C)cc(C)[nH]c2=O)c1C)C1CCNCC1F (centres unmarked) [Example 67, N-((4,6-dimethyl-2-oxo-1,2-dihydropyridin-3-yl)methyl)-5-(ethyl(3-fluoropiperidin-4-yl)amino)-4-methylthiophene-3-carboxamide]	–	20 nM
CCN(c1scc(C(=O)NCc2c(C)cc(C)[nH]c2=O)c1C)C1CCN(C(C)C)CC1 [Example 66, N-((4,6-dimethyl-2-oxo-1,2-dihydropyridin-3-yl)methyl)-5-(ethyl(1-isopropylpiperidin-4-yl)amino)-4-methylthiophene-3-carboxamide]	–	63 nM

Further compounds by falling IC50 [2], results first:

IC50 [1]	IC50 [2]	Compound
100 nM	794 nM	CCN(c1scc(C(=O)NCc2c(C)cc(C)n(C)c2=O)c1C)C1CCOCC1 [Example 31, 5-(Ethyl(tetrahydro-2H-pyran-4-yl)amino)-4-methyl-N-((1,4,6-trimethyl-2-oxo-1,2-dihydropyridin-3-yl)methyl)thiophene-3-carboxamide]
–	316 nM	CCN(c1sc(C2CCN(C(=O)OC(C)(C)C)CC2)c(C(=O)NCc2c(C)cc(C)[nH]c2=O)c1C)C1CCOCC1 [Example 59, tert-Butyl 4-(3-(((4,6-dimethyl-2-oxo-1,2-dihydropyridin-3-yl)methyl)carbamoyl)-5-(ethyl(tetrahydro-2H-pyran-4-yl)amino)-4-methylthiophen-2-yl)piperidine-1-carboxylate]
16 nM	25 nM	CCN(c1csc(C(=O)NCc2c(C)cc(C)[nH]c2=O)c1C)[C@H]1CC[C@H](N(C)C)CC1 [Example 4, N-((4,6-dimethyl-2-oxo-1,2-dihydropyridin-3-yl)methyl)-4-(((trans)-4-(dimethylamino)cyclohexyl)(ethyl)amino)-3-methylthiophene-2-carboxamide]
16 nM	20 nM	CCN(c1scc(C(=O)NCc2c(C)cc(C)[nH]c2=O)c1C)C1CCN(C(=O)OC(C)(C)C)CC1 [Example 11, tert-Butyl 4-((4-(((4,6-dimethyl-2-oxo-1,2-dihydropyridin-3-yl)methyl)carbamoyl)-3-methylthiophen-2-yl)(ethyl)amino)piperidine-1-carboxylate]
–	16 nM	CCN(c1sc(Cl)c(C(=O)NCc2c(C)cc(C)[nH]c2=O)c1C)C1CCOCC1 [Example 53, 2-Chloro-N-((4,6-dimethyl-2-oxo-1,2-dihydropyridin-3-yl)methyl)-5-(ethyl(tetrahydro-2H-pyran-4-yl)amino)-4-methylthiophene-3-carboxamide]
